Experimental data reported in patent publication US20020192736A1, “Assay of peroxidase activity” (Pierce Chemical Company, priority 2001, published 2002).
Several values for one entry are separate records, joined by “and”; a condition that tells them apart may be missing. Identical values can stand only once. Like-named read-outs stand apart in the source and are kept apart here. One block for each compound: values may come before it.

What was measured:
B-HRP = biological target: T1, B-HRP (Armoracia rusticana, UniProt P00433); assay: Dot blot assay with B-HRP, film densitometry; details: for Net Relative Intensity at 0.98 pg B-HRP / Net Relative Intensity at 3.9 pg B-HRP / Net Relative Intensity at 62.5 pg B-HRP / Net Relative Intensity at 250 pg B-HRP: […] Azine Enhancer, 5 mM Sodium Luminol
T1 sequence (P00433 31-338): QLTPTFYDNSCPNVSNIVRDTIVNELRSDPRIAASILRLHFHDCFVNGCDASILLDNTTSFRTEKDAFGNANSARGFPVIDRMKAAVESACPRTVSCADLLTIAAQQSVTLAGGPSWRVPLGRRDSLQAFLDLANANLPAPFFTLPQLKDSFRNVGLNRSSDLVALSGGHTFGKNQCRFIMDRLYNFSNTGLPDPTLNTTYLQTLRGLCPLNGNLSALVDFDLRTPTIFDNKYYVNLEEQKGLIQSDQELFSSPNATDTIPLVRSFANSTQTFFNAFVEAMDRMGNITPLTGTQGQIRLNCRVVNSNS

[1] = biological target: horseradish peroxidase labeled streptavidin (SA-HRP) (Armoracia rusticana, UniProt P00433); assay: Dot blot assay on nitrocellulose membrane, film densitometry (relative intensity); type: biochemical
oxidized peroxidase = assay: Poisoning of the chemiluminescent system; type: biochemical; details: azine with hydrogen atom bonded to the ring nitrogen
Procedure: The contaminant has been identified as a reducing azine species wherein the azine is capable of donating an electron or otherwise reacting with oxidized peroxidase (or peroxidase equivalent). […] This characterization has been made both by theoretic analysis, chemical analysis to determine the presence of the 10=H species, and by reconstruction experiments wherein the “poisoning azine” was added to highly purified azine compositions in order to quantitate the poisoning effects, and to establish the preferred purity of the azine enhancers. […] Concentrations or absolute amounts of a target analyte, which are one-tenth the minimum detectable by other systems can be detected in preferred systems of the invention. […]
This species is a non-enhancing oxidized species of […]. […] If a thiazine with a hydrogen in the 10-yl position is proven to be a non-poisoning species (by its inability to readily react with oxidized peroxidase at room temperature), its presence in or absence from the solution is inconsequential. […] By describing these compounds as inert or not readily reactive with oxidized peroxidase, the basis for the consideration of these terms is visible effects upon luminescence in a peroxidase system. […]

[2] = 20 pg SA-HRP, enhancer concentrations as in row ([…] 1c; 52 μM 1c; 52 μM 1b; 13.5 μM 3)
[3] = 30 minute reexposure, working solutions: […] 1c, 52 μM 1c, 52 μM 1b, 13.5 μM 3, 52 μM 1b + 13.5 μM 3
[4] = 50 μM Azine Enhancer, 1 mM Sodium Luminol
[5] = […] Azine Enhancer, 5 mM Sodium Luminol

Compound: c1ccc2c(c1)Nc1ccccc1S2 [Azine Poison 1a, phenothiazine]
- Background RI at 0 pg of B-HRP (B-HRP): 7.74 and 6.15 and 6.01 and 7.24
- Relative Intensity at 250 pg of B-HRP (B-HRP): 180.38 and 209.39 and 165.28

Compound: CC(CN1c2ccccc2Sc2ccccc21)C[N+](C)(C)C.[Cl-] (stereo not drawn) [Azine Enhancer 1g]
- Net Relative Intensity at 0.98 pg B-HRP (B-HRP): 0
- Net Relative Intensity at 3.9 pg B-HRP (B-HRP): 0
- Net Relative Intensity at 62.5 pg B-HRP (B-HRP): 2.16
- Net Relative Intensity at 250 pg B-HRP (B-HRP): 17.92

Compound: O=S(=O)([O-])CCCCN1c2ccccc2Sc2ccc(Cl)cc21.[Na+] [Azine Enhancer 1h]
- Net Relative Intensity at 0.98 pg B-HRP (B-HRP): 0.20
- Net Relative Intensity at 3.9 pg B-HRP (B-HRP): 0.55
- Net Relative Intensity at 62.5 pg B-HRP (B-HRP): 44.09
- Net Relative Intensity at 250 pg B-HRP (B-HRP): 75.58

- Relative Intensity 1 minute [1, 2]: 747,888
- Relative Intensity 5 minutes [1, 2]: 707,432
- Relative Intensity 30 minutes [1, 2]: 598,082
- Relative Intensity 1 hours [1, 2]: 492,016
- Relative Intensity 2 hours [1, 2]: 274,888
- Relative Intensity 24 hours [1, 2]: 0
- Relative Intensity 2 pg SA-HRP [1, 3]: 0
- Relative Intensity 5 pg SA-HRP [1, 3]: 106,776
- Relative Intensity 20 pg SA-HRP [1, 3]: 598,072
Compound: O=C1C=CC(=Nc2ccc(O)cc2)C=C1 [Phenolic Enhancer 3, Phenolindophenol/indophenol]

Compound: O=C(O)CCCN1c2ccccc2Sc2ccccc21 [Azine Enhancer 1e]
- Net Relative Intensity at 10 pg SA-HRP [1, 4]: 1,416,056
- Net Relative Intensity at 100 pg SA-HRP [1, 4]: 4,351,240
- Net Relative Intensity at 1000 pg SA-HRP [1, 4]: 9,599,880
- Net Relative Intensity at 10 pg SA-HRP [1, 5]: 432,352
- Net Relative Intensity at 100 pg SA-HRP [1, 5]: 3,021,440
- Net Relative Intensity at 1000 pg SA-HRP [1, 5]: 8,706,320

Compound: O=S(=O)([O-])CCCCN1c2ccccc2Sc2ccccc21.[Na+] [Azine Enhancer 1f]
- Net Relative Intensity at 0.98 pg B-HRP (B-HRP): 12.05
- Net Relative Intensity at 3.9 pg B-HRP (B-HRP): 28.77
- Net Relative Intensity at 62.5 pg B-HRP (B-HRP): 91.44
- Net Relative Intensity at 250 pg B-HRP (B-HRP): 151.53

Compound: CN1c2ccccc2Sc2ccccc21 [Azine Enhancer 1b, N-Methylphenothiazine]
- Net Relative Intensity at 10 pg SA-HRP [1]: 0
- Net Relative Intensity at 100 pg SA-HRP [1]: 0
- Relative Intensity 2 pg SA-HRP [1]: 0
- Relative Intensity 5 pg SA-HRP [1]: 0
- Relative Intensity 20 pg SA-HRP [1]: 573,864
- Relative Intensity 1 minute [1]: 457,800
- Relative Intensity 5 minutes [1]: 628,408
- Relative Intensity 30 minutes [1]: 573,864
- Relative Intensity 1 hours [1]: 502,376
- Relative Intensity 24 hours [1]: 0

Compound: 2-chloro-10 (3 trimethyl amino propyl)-phenothiazonan bromide [Azine Enhancer 1d]
- Net Relative Intensity at 1000 pg SA-HRP [1]: 1,106,656 and 1,538,600
- Net Relative Intensity at 0.98 pg B-HRP (B-HRP): 0
- Net Relative Intensity at 3.9 pg B-HRP (B-HRP): 0
- Net Relative Intensity at 62.5 pg B-HRP (B-HRP): 1.70
- Net Relative Intensity at 250 pg B-HRP (B-HRP): 15.63

Compound: [O-][O+]1c2ccccc2Nc2ccccc21 [phenoxazine-5-oxide]
- poisoning of the chemiluminescent system (oxidized peroxidase): does not poison the system
